According to patent publication US20120309734A1, “COMBRETASTATIN DERIVATIVES AND USES THEREFOR” (priority 2009, published 2012):

Assays:
A2780-parental = assay: Alamar Blue cell viability assay; assay type: cell-based; details: 72 h
Experimental: (§1) Cells were exposed to multiple concentrations of the indicated compound for 72 h. Cell viability was assessed using the Alamar blue assay and respective IC50 values were calculated. The resistance factor (RF) was calculated by dividing the IC50 of the resistant cell line/IC50 of the parental cell line.
(§2) A2780-parental and A2780-ADR resistant cells were provided by the Beatson Institute of Cancer Research, Glasgow. […] All cells were cultured in RPMI-1640 Glutamax medium supplemented with 10% FCS media, 100 units/ml penicillin and 100 μg/mIstreptomycin. Cells were maintained at 37° C. in 5% CO2 in a humidified incubator.
(§3) The reduction of Alamar Blue is proportional to the number of viable cells. Cells (200 μl) were plated in triplicate in a 96-well plates (K562, 100,000/ml; HL-60, 300,000/ml; A-2780 50,000/ml). A-2780 cells were plated 24 h prior to treatment. Suspension cells were plated in the log phase of growth and treated immediately. The cells were then treated with either medium alone, vehicle (1% ethanol v/v or 0.1% DMSO v/v) or with a range of concentrations of drug [0.001-10 μM]. After 72 h, Alamar Blue was added to each well (10% of final volume) and fluorescence was read using a 96-well fluorometer with excitation at 530 nm and emission of 590 nm. The blank solution consisted of medium and Alamar Blue and the blank solution was used to calibrate the spectrophotometer to zero absorbance. The relative cell viability (%) related to control wells and was calculated by [A]test/[A]control×100 where [A]test is the absorbance of the drug treated cells and [A]control the absorbance of the vehicle control treated cells. Dose response curves were plotted and IC50 values (concentration of drug resulting in 50% reduction in cell survival) were obtained using the commercial software package Prism (GraphPad Software, Inc., La Jolla, USA). Experiments were performed in triplicate on at least three separate occasions.

A2780-ADR (PGP) = assay: Alamar Blue cell viability assay; details: for IC50: A2780 ADR, 72 h; for RF: IC50 A2780-ADR (PGP) / IC50 A2780-parental
Experimental: (§4) Three drug resistant cell lines and respective parental cell lines were assessed. […] Western blot analysis confirmed the overexpression of p-glycoprotein and BCRP in respective cell lines.
as §1
(§5) All cells were cultured in RPMI-1640 Glutamax medium supplemented with 10% FCS media, 100 units/ml penicillin and 100 μg/mIstreptomycin. Cells were maintained at 37° C. in 5% CO2 in a humidified incubator.
as §3

[1] = system: MCF-7 breast cancer cell line; assay: Antiproliferation study, MTT cell viability assay; assay type: cell-based; details: Homo sapiens, MCF7, 72 h, antiproliferative activity, MTT, 72 h; read-out: IC50 (μM) MCF-7 cell line
Experimental: All assays were performed in triplicate for the determination of mean values reported. Compounds were assayed as the free bases isolated from reaction. The human breast tumour cell line MCF-7 was cultured in Eagles minimum essential medium in a […] atmosphere with 10% fetal bovine serum, 2 mM L-glutamine and 100 μg/mL penicillin/streptomycin. The medium was supplemented with 1% non-essential amino acids. MDA-MB-231 cells were maintained in Dulbecco's Modified Eagle's medium (DMEM), supplemented with 10% (v/v) Fetal bovine serum, 2 mM L-glutamine and 100 μg/mL penicillin/streptomycin (complete medium). Cells were trypsinised and seeded at a density of 2.5×10^4 cells/ml in a 96-well plate and incubated at 37° C., […] atmosphere for 24 h. […] Control wells contained the equivalent volume of the vehicle ethanol (1% v/v). The culture medium was then removed and the cells washed with 100 μL phosphate buffered saline (PBS) and 50 μL MTT added, to reach a final concentration of 1 mg/mL MTT added. Cells were incubated for 2 h in darkness at 37° C. At this point solubilization was begun through the addition of 200 μL DMSO and the cells maintained at room temperature in darkness for 20 min to ensure thorough colour diffusion before reading the absorbance. The absorbance value of control cells (no added compound) was set to 100% cell viability and from this graphs of absorbance versus cell density per well were prepared to assess cell viability and from these, graphs of percentage cell viability versus concentration of subject compound added were drawn.

[2] = Stability by HPLC at three pH values; assay type: physicochemical
Experimental: The stability of β-lactam compounds 4, 8 and 12 was assessed by HPLC at three different pH values. […] The half-lives of 8 and 12 were both greater than 24 hours at all pH values. The stability of three ester prodrug derivatives of 4, i.e. 29, 30 and 31, was also assessed (FIG. 6).

HL-60 parental = assay: Alamar Blue cell viability assay; assay type: cell-based; details: Homo sapiens, 72 h
Experimental: as §1, §2, §3

HL-60-MDR(PGP) = assay: Alamar Blue cell viability assay; assay type: cell-based, human; details: for IC50: Homo sapiens, HL60/MDR, HL-60-MDR(PGP), 72 h, Alamar blue, read-out: IC50; for RF: IC50 HL-60-MDR(PGP) / IC50 HL-60 parental
Experimental: as §4, §1, §5, §3

COc1cccc2c1C(=O)c1c(O)c3c(c(O)c1C2=O)C[C@@](O)(C(=O)CO)C[C@@H]3O[C@H]1C[C@H](N)[C@H](O)[C@H](C)O1 [Adriamycin, adriamycin]
IC50 (A2780-parental): 42.8 nM
IC50 (A2780-ADR (PGP)): 5100 nM
RF (A2780-ADR (PGP)): 119.2

C=C(C)C1C(=O)N(c2cc(OC)c(OC)c(OC)c2)C1c1ccc(OC)c(O)c1 (centres unmarked) [Compound 3, 4-(3-Hydroxy-4-methoxy-phenyl)-3-isopropenyl-1-(3,4,5-trimethoxy-phenyl)-azetidin-2-one]
IC50 [1]: 0.019 µM

COc1ccc(C2C(C(C)O)C(=O)N2c2cc(OC)c(OC)c(OC)c2)cc1O (centres unmarked) [Compound 6, 3-(1-Hydroxy-ethyl)-4-(3-hydroxy-4-methoxy-phenyl)-1-(3,4,5-trimethoxy-phenyl)-azetidin-2-one]
IC50 [1]: 0.0376 µM

COc1ccc(C2C(C(O)C=Cc3ccccc3)C(=O)N2c2cc(OC)c(OC)c(OC)c2)cc1O (centres unmarked) [Compound 7, 4-(3-Hydroxy-4-methoxy-phenyl)-3-(1-hydroxy-3-phenyl-allyl)-1-(3,4,5-trimethoxy-phenyl)-azetidin-2-one]
IC50 [1]: 0.0468 µM

COc1ccc(C2C(c3ccc(N)cc3)C(=O)N2c2cc(OC)c(OC)c(OC)c2)cc1 (centres unmarked) [Compound 9, 3-(4-Amino-phenyl)-4-(4-methoxy-phenyl)-1-(3,4,5-trimethoxyphenyl)-azetidin-2-one]
IC50 [1]: 0.05 µM

COc1ccc(C2C(c3ccc(O)cc3)C(=O)N2c2cc(OC)c(OC)c(OC)c2)cc1 (centres unmarked) [Compound 10, 3-(4-Hydroxy-phenyl)-4-(4-methoxy-phenyl)-1-(3,4,5-trimethoxy-phenyl)-azetidin-2-one]
melting point: 155 °C
IC50 [1]: 0.059 µM

COc1ccc(C2C(c3ccc(F)cc3)C(=O)N2c2cc(OC)c(OC)c(OC)c2)cc1 (centres unmarked) [Compound 11, 3-(4-Fluoro-phenyl)-4-(4-methoxy-phenyl)-1-(3,4,5-trimethoxy-phenyl)-azetidin-2-one]
melting point: 120 °C
IC50 [1]: 0.042 µM

COc1ccc(C2C(c3ccccc3)C(=O)N2c2cc(OC)c(OC)c(OC)c2)cc1N (centres unmarked) [Compound 13, 4-(3-Amino-4-methoxy-phenyl)-3-phenyl-1-(3,4,5-trimethoxy-phenyl)-azetidin-2-one]
IC50 [1]: 0.065 µM

COc1ccc(C2C(c3ccc(O)cc3)C(=O)N2c2cc(OC)c(OC)c(OC)c2)cc1N (centres unmarked) [Compound 15, 4-(3-Amino-4-methoxy-phenyl)-3-(4-hydroxy-phenyl)-1-(3,4,5-trimethoxy-phenyl)-azetidin-2-one]
melting point: 177 °C
IC50 [1]: 0.039 µM

COc1ccc(C2C(c3ccc(F)cc3)C(=O)N2c2cc(OC)c(OC)c(OC)c2)cc1O (centres unmarked) [Compound 16, 3-(4-Fluoro-phenyl)-4-(3-hydroxy-4-methoxy-phenyl)-1-(3,4,5-trimethoxy-phenyl)-azetidin-2-one]
IC50 [1]: 0.065 µM

COc1ccc(C2C(c3ccc(F)cc3)C(=O)N2c2cc(OC)c(OC)c(OC)c2)cc1N (centres unmarked) [Compound 17, 4-(3-Amino-4-methoxy-phenyl)-3-(4-fluoro-phenyl)-1-(3,4,5-trimethoxy-phenyl)-azetidin-2-one]
IC50 [1]: 0.055 µM

COc1ccc(C2C(c3cccs3)C(=O)N2c2cc(OC)c(OC)c(OC)c2)cc1O (centres unmarked) [Compound 18, 4-(3-Hydroxy-4-methoxy-phenyl)-3-thiophen-2-yl-1-(3,4,5-trimethoxy-phenyl)-azetidin-2-one]
melting point: 113 to 114 °C
IC50 [1]: 0.007 µM

COc1ccc(C2C(c3cccs3)C(=O)N2c2cc(OC)c(OC)c(OC)c2)cc1N (centres unmarked) [Compound 19, 4-(3-Amino-4-methoxy-phenyl)-3-thiophen-2-yl-1-(3,4,5-trimethoxy-phenyl)-azetidin-2-one]
IC50 [1]: 0.041 µM

COc1ccc(C2C(c3ccsc3)C(=O)N2c2cc(OC)c(OC)c(OC)c2)cc1O (centres unmarked) [Compound 20, 4-(3-Hydroxy-4-methoxy-phenyl)-3-thiophen-3-yl-1-(3,4,5-trimethoxy-phenyl)-azetidin-2-one]
melting point: 151 to 152 °C
IC50 [1]: 0.01 µM

COc1ccc(C2C(c3ccsc3)C(=O)N2c2cc(OC)c(OC)c(OC)c2)cc1 (centres unmarked) [Compound 21, 4-(4-Methoxy-phenyl)-3-thiophen-3-yl-1-(3,4,5-trimethoxy-phenyl)-azetidin-2-one]
melting point: 130 °C
IC50 [1]: 0.06 µM

COc1ccc(C2C(c3cccc(O)c3)C(=O)N2c2cc(OC)c(OC)c(OC)c2)cc1 (centres unmarked) [Compound 22, 3-(3-Hydroxy-phenyl)-4-(4-methoxy-phenyl)-1-(3,4,5-trimethoxy-phenyl)-azetidin-2-one]
IC50 [1]: 0.0689 µM

COc1ccc(C2C(c3ccc(N)cc3)C(=O)N2c2cc(OC)c(OC)c(OC)c2)cc1O (centres unmarked) [Compound 23, 3-(4-Amino-phenyl)-4-(3-hydroxy-4-methoxy-phenyl)-1-(3,4,5-trimethoxy-phenyl)-azetidin-2-one]
IC50 [1]: 0.004 µM

COc1ccc(C2C(c3ccc(N)cc3)C(=O)N2c2cc(OC)c(OC)c(OC)c2)cc1N (centres unmarked) [Compound 24, 4-(3-Amino-4-methoxy-phenyl)-3-(4-amino-phenyl)-1-(3,4,5-trimethoxy-phenyl)-azetidin-2-one]
IC50 [1]: 0.03 µM

COc1ccc(C2CC(=O)N2c2cc(OC)c(OC)c(OC)c2)cc1 (centres unmarked) [Compound 26, 4-(4-Methoxyphenyl)-1-(3,4,5-trimethoxyphenyl)-azetidin-2-one]
IC50 [1]: 0.039 µM

COc1ccc(C2C(C)C(=O)N2c2cc(OC)c(OC)c(OC)c2)cc1 (centres unmarked) [Compound 27, 4-(4-Methoxyphenyl)-3-methyl-1-(3,4,5-trimethoxyphenyl)-azetidin-2-one]
IC50 [1]: 0.047 µM

COc1ccc(C2C(C)C(=O)N2c2cc(OC)c(OC)c(OC)c2)cc1O (centres unmarked) [Compound 28, 4-(3-Hydroxy-4-methoxyphenyl)-3-methyl-1-(3,4,5-trimethoxyphenyl)-azetidin-2-one]
IC50 [1]: 0.01 µM

COc1ccc([C@H]2[C@H](c3ccccc3)C(=O)N2c2cc(OC)c(OC)c(OC)c2)cc1OP(=O)(O)O [Compound 29]
compound remaining after 24 hours ([2]; pH 4): 100%
compound remaining after 24 hours ([2]; pH 7.4): 100%
compound remaining after 24 hours ([2]; pH 9): 100%

COc1ccc(C2[C@H](c3ccccc3)C(=O)N2c2cc(OC)c(OC)c(OC)c2)cc1OC(C)=O (some centres unmarked) [Compound 30]
compound remaining after 24 hours ([2]; pH 4): 60%
compound remaining after 24 hours ([2]; pH 7.4): 42%
compound remaining after 24 hours ([2]; pH 9): 54%

COc1ccc(C2[C@H](c3ccccc3)C(=O)N2c2cc(OC)c(OC)c(OC)c2)cc1OC(=O)c1ccccc1 (some centres unmarked) [Compound 31]
compound remaining after 24 hours ([2]; pH 4): 61%
compound remaining after 24 hours ([2]; pH 7.4): 35%
compound remaining after 24 hours ([2]; pH 9): 76%

CC(=O)O[C@H]1C(=O)[C@@]2(C)[C@H]([C@H](OC(=O)c3ccccc3)[C@]3(O)C[C@H](OC(=O)[C@H](O)[C@@H](NC(=O)c4ccccc4)c4ccccc4)C(C)=C1C3(C)C)[C@]1(OC(C)=O)CO[C@@H]1C[C@@H]2O [Paclitaxel, paclitaxel]
IC50 (HL-60 parental): 4.8 nM
IC50 (A2780-parental): 4.2 nM
IC50 (A2780-ADR (PGP)): > 10000 nM
RF (A2780-ADR (PGP)): >2,381
IC50 (HL-60-MDR(PGP)): > 10000 nM
RF (HL-60-MDR(PGP)): >2,083

CC[C@]1(O)C[C@H]2CN(CCc3c([nH]c4ccccc34)[C@@](C(=O)OC)(c3cc4c(cc3OC)N(C=O)[C@H]3[C@@](O)(C(=O)OC)[C@H](OC(C)=O)[C@]5(CC)C=CCN6CC[C@]43[C@@H]65)C2)C1 [Vincristine, vincristine]
IC50 (HL-60 parental): 2.2 nM
IC50 (A2780-parental): 3.1 nM
IC50 (A2780-ADR (PGP)): 1600 nM
RF (A2780-ADR (PGP)): 516
IC50 (HL-60-MDR(PGP)): 610 nM
RF (HL-60-MDR(PGP)): 277.3
